Where “and” joins values, the source holds several entries; their conditions need not be identical. Equal entries are not always repeated.
Tested on: 855422-203-R-J1-PDC complex spheroid growth
Assay: Anticancer human tumor 855422-203-R-J1-PDC patient-derived bladder carcinoma cell line growth inhibition [AhR]
Conditions: for viability, T/C: stronger effect = lower value
In short: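 Spheroids combined tumor cells with HUVEC endothelial cells and human MSCs as stroma. AhR antagonists were paired with standard or investigational drugs, each dosed in half-log steps down from near clinical Cmax, or from 10 microM where Cmax was unknown.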

[1] = curve of first compound, second compound 0.1 µM
[2] = curve of first compound, second compound 0.316 µM
[3] = curve of first compound, second compound 1 µM
[4] = curve of first compound, second compound 3.16 µM
[5] = curve of first compound, second compound 10 µM
[6] = second compound 0.1 µM, first compound 0.0316 µM
[7] = second compound 0.1 µM, first compound 0.1 µM
[8] = second compound 0.1 µM, first compound 0.316 µM
[9] = second compound 0.1 µM, first compound 1 µM
[10] = second compound 0.1 µM, first compound 3.16 µM
[11] = second compound 0.1 µM, first compound 10 µM
[12] = second compound 0.316 µM, first compound 0.0316 µM
[13] = second compound 0.316 µM, first compound 0.1 µM
[14] = second compound 0.316 µM, first compound 0.316 µM
[15] = second compound 0.316 µM, first compound 1 µM
[16] = second compound 0.316 µM, first compound 3.16 µM
[17] = second compound 0.316 µM, first compound 10 µM
[18] = second compound 1 µM, first compound 0.0316 µM
[19] = second compound 1 µM, first compound 0.1 µM
[20] = second compound 1 µM, first compound 0.316 µM
[21] = second compound 1 µM, first compound 1 µM
[22] = second compound 1 µM, first compound 3.16 µM
[23] = second compound 1 µM, first compound 10 µM
[24] = second compound 3.16 µM, first compound 0.0316 µM
[25] = second compound 3.16 µM, first compound 0.1 µM
[26] = second compound 3.16 µM, first compound 0.316 µM
[27] = second compound 3.16 µM, first compound 1 µM
[28] = second compound 3.16 µM, first compound 3.16 µM
[29] = second compound 3.16 µM, first compound 10 µM
[30] = second compound 10 µM, first compound 0.0316 µM
[31] = second compound 10 µM, first compound 0.1 µM
[32] = second compound 10 µM, first compound 0.316 µM
[33] = second compound 10 µM, first compound 1 µM
[34] = second compound 10 µM, first compound 3.16 µM
[35] = second compound 10 µM, first compound 10 µM
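Also: spheroids exposed to agents for seven days before readout.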
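For viability, T/C in this document: percent of DMSO vehicle control luminescence viability.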

SMILES: Nc1ccccc1NC(=O)c1ccc(CNC(=O)OCc2cccnc2)cc1 + CC(CO)NC(=O)c1cc(-c2ccc(Cl)cc2)nn(-c2cnn(C)c2)c1=O
- IC50 [1]: 3890 nM
- IC50 [2]: 4060 nM
- IC50 [3]: 4130 nM
- IC50 [4]: 2870 nM
- IC50 [5]: 3100 nM
- viability, T/C [6]: 94.2%
- viability, T/C [7]: 91.2%
- viability, T/C [8]: 92%
- viability, T/C [9]: 89.5%
- viability, T/C [10]: 57.9%
- viability, T/C [11]: 14.4%
- viability, T/C [12]: 92.2%
- viability, T/C [13]: 91.6%
- viability, T/C [14]: 90.1%
- viability, T/C [15]: 89.2%
- viability, T/C [16]: 60.7%
- viability, T/C [17]: 11.2%
- viability, T/C [18]: 95.2%
- viability, T/C [19]: 91.8%
- viability, T/C [20]: 91.7%
- viability, T/C [21]: 88.7%
- viability, T/C [22]: 61.5%
- viability, T/C [23]: 11.7%
- viability, T/C [24]: 94%
- viability, T/C [25]: 94.5%
- viability, T/C [26]: 86.6%
- viability, T/C [27]: 77.2%
- viability, T/C [28]: 47.2%
- viability, T/C [29]: 9.66%
- viability, T/C [30]: 88.9%
- viability, T/C [31]: 92.6%
- viability, T/C [32]: 88.5%
- viability, T/C [33]: 74.2%
- viability, T/C [34]: 50.2%
- viability, T/C [35]: 8.41%

SMILES: O=C(C=Cn1cnc(-c2cc(C(F)(F)F)cc(C(F)(F)F)c2)n1)NNc1cnccn1 + Cc1cncc(-c2nc(NCCc3c[nH]c4ccccc34)c3ncn(C(C)C)c3n2)c1
- IC50 [1]: 263 nM
- IC50 [2]: 247 nM
- IC50 [3]: 244 nM
- IC50 [4]: 201 nM
- IC50 [5]: < 9.49 nM
- viability, T/C (second compound 0.1 µM, first compound 0.00949 µM): 101%
- viability, T/C (second compound 0.1 µM, first compound 0.03 µM): 102%
- viability, T/C (second compound 0.1 µM, first compound 0.0949 µM): 162%
- viability, T/C (second compound 0.1 µM, first compound 0.3 µM): 40.8%
- viability, T/C (second compound 0.1 µM, first compound 0.949 µM): 30.8%
- viability, T/C (second compound 0.1 µM, first compound 3 µM): 22.6%
- viability, T/C (second compound 0.316 µM, first compound 0.00949 µM): 108%
- viability, T/C (second compound 0.316 µM, first compound 0.03 µM): 116%
- viability, T/C (second compound 0.316 µM, first compound 0.0949 µM): 128%
- viability, T/C (second compound 0.316 µM, first compound 0.3 µM): 36.3%
- viability, T/C (second compound 0.316 µM, first compound 0.949 µM): 26.3%
- viability, T/C (second compound 0.316 µM, first compound 3 µM): 23.3%
- viability, T/C (second compound 1 µM, first compound 0.00949 µM): 95.3%
- viability, T/C (second compound 1 µM, first compound 0.03 µM): 114%
- viability, T/C (second compound 1 µM, first compound 0.0949 µM): 118%
- viability, T/C (second compound 1 µM, first compound 0.3 µM): 37.1%
- viability, T/C (second compound 1 µM, first compound 0.949 µM): 30.3%
- viability, T/C (second compound 1 µM, first compound 3 µM): 25.3%
- viability, T/C (second compound 3.16 µM, first compound 0.00949 µM): 83.8%
- viability, T/C (second compound 3.16 µM, first compound 0.03 µM): 95.4%
- viability, T/C (second compound 3.16 µM, first compound 0.0949 µM): 106%
- viability, T/C (second compound 3.16 µM, first compound 0.3 µM): 22.2%
- viability, T/C (second compound 3.16 µM, first compound 0.949 µM): 32.2%
- viability, T/C (second compound 3.16 µM, first compound 3 µM): 23.9%
- viability, T/C (second compound 10 µM, first compound 0.00949 µM): 11.4%
- viability, T/C (second compound 10 µM, first compound 0.03 µM): 7.81%
- viability, T/C (second compound 10 µM, first compound 0.0949 µM): 6.35%
- viability, T/C (second compound 10 µM, first compound 0.3 µM): 7.34%
- viability, T/C (second compound 10 µM, first compound 0.949 µM): 7.72%
- viability, T/C (second compound 10 µM, first compound 3 µM): 8.99%

SMILES: O=C(C=Cc1cccc(S(=O)(=O)Nc2ccccc2)c1)NO + CC(CO)NC(=O)c1cc(-c2ccc(Cl)cc2)nn(-c2cnn(C)c2)c1=O
- IC50 [1]: 2150 nM
- IC50 [2]: 1970 nM
- IC50 [3]: 2030 nM
- IC50 [4]: 1540 nM
- IC50 [5]: 1730 nM
- viability, T/C [6]: 87.4%
- viability, T/C [7]: 88.6%
- viability, T/C [8]: 91.1%
- viability, T/C [9]: 71.7%
- viability, T/C [10]: 38.5%
- viability, T/C [11]: 1.42%
- viability, T/C [12]: 89.1%
- viability, T/C [13]: 88.2%
- viability, T/C [14]: 92.7%
- viability, T/C [15]: 70.6%
- viability, T/C [16]: 34.7%
- viability, T/C [17]: 0.82%
- viability, T/C [18]: 93.7%
- viability, T/C [19]: 87.8%
- viability, T/C [20]: 86.6%
- viability, T/C [21]: 79.8%
- viability, T/C [22]: 31.7%
- viability, T/C [23]: 0.88%
- viability, T/C [24]: 83.2%
- viability, T/C [25]: 86.8%
- viability, T/C [26]: 90.7%
- viability, T/C [27]: 60.3%
- viability, T/C [28]: 27.9%
- viability, T/C [29]: 0.71%
- viability, T/C [30]: 87.2%
- viability, T/C [31]: 90.3%
- viability, T/C [32]: 79.4%
- viability, T/C [33]: 67.3%
- viability, T/C [34]: 31.8%
- viability, T/C [35]: 0.94%

SMILES: CC(C)c1c(-c2ccccc2)nc2c(C#N)c[nH]n2c1=O
- viability, T/C (compound 0.0316 µM): 105% and 98.6% and 111%
- viability, T/C (compound 0.1 µM): 97.8% and 96% and 112%
- viability, T/C (compound 0.316 µM): 111% and 97% and 96.5%
- viability, T/C (compound 1 µM): 99.3% and 89.9% and 105%
- viability, T/C (compound 3.16 µM): 105% and 98.1% and 98.8%
- viability, T/C (compound 10 µM): 77.9% and 92% and 96.4%
- IC50 (curve of compound): > 10000 nM

SMILES: CC1COCCN1c1cc(C2(S(C)(=N)=O)CC2)nc(-c2ccnc3[nH]ccc23)n1 (configuration not stated) + Cc1cncc(-c2nc(NCCc3c[nH]c4ccccc34)c3ncn(C(C)C)c3n2)c1
- IC50 [1]: 6690 nM
- IC50 [2]: 6720 nM
- IC50 [3]: 6270 nM
- IC50 [4]: 1650 nM
- IC50 [5]: < 31.6 nM
- viability, T/C [6]: 96.7%
- viability, T/C [7]: 88.9%
- viability, T/C [8]: 83.1%
- viability, T/C [9]: 98.6%
- viability, T/C [10]: 114%
- viability, T/C [11]: 25.1%
- viability, T/C [12]: 84.1%
- viability, T/C [13]: 81.6%
- viability, T/C [14]: 79.7%
- viability, T/C [15]: 98.3%
- viability, T/C [16]: 110%
- viability, T/C [17]: 28.4%
- viability, T/C [18]: 80.4%
- viability, T/C [19]: 81.8%
- viability, T/C [20]: 66.9%
- viability, T/C [21]: 79.1%
- viability, T/C [22]: 92%
- viability, T/C [23]: 29.5%
- viability, T/C [24]: 69%
- viability, T/C [25]: 70.7%
- viability, T/C [26]: 74.2%
- viability, T/C [27]: 48.4%
- viability, T/C [28]: 44.6%
- viability, T/C [29]: 17.9%
- viability, T/C [30]: 23.8%
- viability, T/C [31]: 27.1%
- viability, T/C [32]: 12.5%
- viability, T/C [33]: 9.69%
- viability, T/C [34]: 8.26%
- viability, T/C [35]: 5.32%
